Measurements reported in patent US8642788B2, “Activators of executioner procaspases 3, 6 and 7” (The Regents of the University of California, priority 2008, dated 2014).

How the values were obtained:
Assay type in all cases: biochemical
[1] = target: T1, procaspase-7 (Homo sapiens, UniProt P55210); test: Executioner procaspase-7 activation assay (Ac-DEVD-AFC fluorogenic substrate); conditions: incubation with compound for 5 h at 37° C.; 100 nM procaspase
T1 construct: His6 (C); made in house; host or cells: E. coli BL21(DE3)RP, pET-21b
T1 sequence (P55210 1-303): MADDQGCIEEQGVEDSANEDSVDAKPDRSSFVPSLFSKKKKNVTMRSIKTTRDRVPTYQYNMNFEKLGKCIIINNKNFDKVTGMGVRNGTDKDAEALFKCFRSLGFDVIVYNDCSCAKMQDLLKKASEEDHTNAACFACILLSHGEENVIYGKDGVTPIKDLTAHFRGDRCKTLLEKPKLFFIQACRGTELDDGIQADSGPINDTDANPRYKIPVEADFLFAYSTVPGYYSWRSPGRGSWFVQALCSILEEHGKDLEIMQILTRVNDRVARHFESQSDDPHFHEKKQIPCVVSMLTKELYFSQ
Protocol: (§1) The executioner procaspase-3, -6 and -7 activation assay protocol involves incubating the target protein at the physiologically-relevant concentration of 100 nM with activating compounds (ranging from 100 nM to 100 uM) in a total volume of 50 μL consisting of a reaction buffer of 50 mM HEPES, pH 7.4, 50 mM KCl, 1 mM DTT and 0.01% Triton-X100 (to reduce false positive hits due to compound aggregation). The procaspase/small molecule incubations are then agitated at 37° C. and assayed at various time points by addition of the fluorogenic peptide substrate 7-Amino-4-trifluoromethylcoumarin-DEVD (Ac-DEVD-AFC) (procaspases-3, -7) or Ac-VEID-AFC (procaspase-6) to a final concentration of 25 μM and analyzed by a kinetic 30 minute assay (excitation 365 nm and emission 495 nm). The final concentration of DMSO in each well is 3% and has no effect on enzyme stability or activity. […] All components of the assay including protein, substrate and inhibitor are stored as frozen aliquots and thawed immediately prior to the assay.
(§2) Tables 1 and 2. Procaspase activation as a result of incubation with compound for 5 h at 37° C. (+++ EC50˜0.5-10 μM; ++ EC50˜10-50 μM; + EC50˜50-200 μM; -no activation observed; ND not determined).

[2] = target: T2, procaspase-3 (Homo sapiens, UniProt P42574); test: Executioner procaspase-3 activation assay (Ac-DEVD-AFC fluorogenic substrate); conditions: incubation with compound for 5 h at 37° C.; 100 nM procaspase; read-out: Procaspase Activation 3
T2 construct: His6 (C); made in house; host or cells: E. coli BL21(DE3)RP, pET-23b
T2 sequence (P42574 1-277): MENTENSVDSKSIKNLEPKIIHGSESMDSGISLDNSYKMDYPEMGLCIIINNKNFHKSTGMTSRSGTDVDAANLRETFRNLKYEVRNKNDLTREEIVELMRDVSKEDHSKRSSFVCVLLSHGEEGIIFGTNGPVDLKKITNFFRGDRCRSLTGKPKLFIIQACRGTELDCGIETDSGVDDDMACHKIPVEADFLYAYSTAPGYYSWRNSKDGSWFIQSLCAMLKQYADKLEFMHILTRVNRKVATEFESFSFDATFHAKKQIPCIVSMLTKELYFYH
Protocol: The executioner procaspase-3, -6 and -7 activation assay protocol involves incubating the target protein at the physiologically-relevant concentration of 100 nM with activating compounds (ranging from 100 nM to 100 uM) in a total volume of 50 μL consisting of a reaction buffer of 50 mM HEPES, pH 7.4, 50 mM KCl, 1 mM DTT and 0.01% Triton-X100 (to reduce false positive hits due to compound aggregation). […] All components of the assay including protein, substrate and inhibitor are stored as frozen aliquots and thawed immediately prior to the assay.

[3] = target: T3, procaspase-6 (Homo sapiens, UniProt P55212); test: Executioner procaspase-6 activation assay (Ac-VEID-AFC fluorogenic substrate); conditions: incubation with compound for 5 h at 37° C.; 100 nM procaspase
T3 sequence (P55212 1-293): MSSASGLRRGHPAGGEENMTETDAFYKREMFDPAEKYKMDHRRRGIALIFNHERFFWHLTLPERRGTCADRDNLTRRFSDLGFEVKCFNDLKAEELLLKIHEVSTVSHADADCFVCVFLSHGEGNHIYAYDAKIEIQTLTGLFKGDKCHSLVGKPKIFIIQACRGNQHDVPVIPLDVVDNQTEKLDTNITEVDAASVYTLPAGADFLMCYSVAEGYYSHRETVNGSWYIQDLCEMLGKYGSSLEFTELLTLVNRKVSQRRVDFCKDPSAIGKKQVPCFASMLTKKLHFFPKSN
Protocol: as §1, §2

`O=C(Nc1cccc(-c2nc3ccccc3[nH]2)c1)c1cc2cccc(O)c2oc1=O` [compound 15, 8-Hydroxy-2-oxo-2H-chromene-3-carboxylic acid [3-(1H-benzoimidazol-2-yl)-phenyl]-amide] showed an EC50 [1] of over 100 µM, an EC50 [2] of over 100 µM and an EC50 [3] of over 100 µM.

`O=C(Nc1cccc(N2CCOCC2)c1)c1cc2cccc(O)c2oc1=O` [compound 16, 8-Hydroxy-2-oxo-2H-chromene-3-carboxylic acid (3-morpholin-4-yl-phenyl)-amide] gave an EC50 [1] of over 100 µM, an EC50 [2] of over 100 µM and an EC50 [3] of over 100 µM.

In the case of `O=C(Nc1cccc(-c2cccnc2)c1)c1cc2cccc(O)c2oc1=O` [compound 17, 8-Hydroxy-2-oxo-2H-chromene-3-carboxylic acid (3-pyridin-3-yl-phenyl)-amide], the EC50 [1] is reported as over 100 µM, the EC50 [2] is reported as over 100 µM and the EC50 [3] is reported as over 100 µM.

`COc1cccc2cc(C(=O)Nc3cccc(-c4cccnc4)c3)c(=O)oc12` [compound 18, 8-Methoxy-2-oxo-2H-chromene-3-carboxylic acid (3-pyridin-3-yl-phenyl)-amide] gave an EC50 [1] of over 100 µM, an EC50 [2] of over 100 µM and an EC50 [3] of over 100 µM.

In the case of `O=C(Nc1cccc(-c2ccncc2)c1)c1cc2cccc(O)c2oc1=O` [compound 19, 8-Hydroxy-2-oxo-2H-chromene-3-carboxylic acid (3-pyridin-4-yl-phenyl)-amide], the EC50 [1] is reported as 50 to 200 µM, the EC50 [2] is reported as 0.5 to 10 µM and the EC50 [3] is reported as 0.5 to 10 µM.

`CCOc1ncccc1-c1cccc(NC(=O)c2cc3cccc(O)c3oc2=O)c1` [compound 41, 8-Hydroxy-2-oxo-2H-chromene-3-carboxylic acid [3-(2-ethoxy-pyridin-3-yl)-phenyl]-amide] was tested, and the EC50 [1] was over 100 µM, the EC50 [2] was 10 to 50 µM and the EC50 [3] was 50 to 200 µM.

In the case of `CCOc1ncccc1-c1cccc(NC(=O)c2cc3cccc(OC)c3oc2=O)c1` [compound 42, 8-Methoxy-2-oxo-2H-chromene-3-carboxylic acid [3-(2-ethoxy-pyridin-3-yl)-phenyl]-amide], the EC50 [1] is reported as over 100 µM, the EC50 [2] is reported as over 100 µM and the EC50 [3] is reported as over 100 µM.

Work on `CCOc1ncccc1-c1cccc(NC(=O)c2cc3cccc(OC(F)(F)F)c3oc2=O)c1` [compound 43, 8-Trifluoromethoxy-2-oxo-2H-chromene-3-carboxylic acid [3-(2-ethoxy-pyridin-3-yl)-phenyl]-amide] yielded an EC50 [1] of over 100 µM, an EC50 [2] of over 100 µM and an EC50 [3] of over 100 µM.

`COc1ccc(-c2cccc(NC(=O)c3cc4cccc(O)c4oc3=O)c2)cc1` [compound 44, 8-Hydroxy-2-oxo-2H-chromene-3-carboxylic acid (4′-Methoxy-biphenyl-3-yl)-amide] gave an EC50 [1] of 0.5 to 10 µM, an EC50 [2] of over 100 µM and an EC50 [3] of over 100 µM.

Compound `COc1ccc(-c2cccc(NC(=O)c3cc4cccc(OC(F)(F)F)c4oc3=O)c2)cc1` [compound 46, 8-Trifluoromethoxy-2-oxo-2H-chromene-3-carboxylic acid (4′-Methoxy-biphenyl-3-yl)-amide] has an EC50 [1] of over 100 µM, an EC50 [2] of over 100 µM and an EC50 [3] of over 100 µM.

For `COc1ccc(-c2cccc(NC(=O)c3cc4cccc(O)c4oc3=O)c2)cc1C` [compound 47, 8-Hydroxy-2-oxo-2H-chromene-3-carboxylic acid (4′-Methoxy-3′-methyl-biphenyl-3-yl)-amide], the EC50 [1] was over 100 µM, the EC50 [2] was over 100 µM and the EC50 [3] was over 100 µM.

`COc1ccc(-c2cccc(NC(=O)c3cc4cccc(OC)c4oc3=O)c2)cc1C` [compound 48, 8-Methoxy-2-oxo-2H-chromene-3-carboxylic acid (4′-Methoxy-3′-methyl-biphenyl-3-yl)-amide] showed an EC50 [1] of over 100 µM, an EC50 [2] of over 100 µM and an EC50 [3] of over 100 µM.

`COc1ccc(-c2cccc(NC(=O)c3cc4cccc(OC(F)(F)F)c4oc3=O)c2)cc1C` [compound 49, 8-Trifluoromethoxy-2-oxo-2H-chromene-3-carboxylic acid (4′-Methoxy-3′-methyl-biphenyl-3-yl)-amide] was tested, and the EC50 [1] was over 100 µM, the EC50 [2] was over 100 µM and the EC50 [3] was over 100 µM.
